Experimental data: patent US12263248B2, “Compounds and compositions for intracellular delivery of therapeutic agents” (ModernaTX, Inc., priority 2018, dated 2025)

Legend:
luciferase (Luc) mRNA [1] = test: Luc expression in liver, lung, spleen and femur 6 hours after intravenous administration; assay type: in vivo; conditions: mice, 0.5 mpk; for Total Flux Liver / Total Flux Lung / Total Flux Spleen / Total Flux Femur: intravenous
In short: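 LNP-formulated mRNA given IV to mice (n=3) at 0.5 mpk; at 6 h, bioluminescence imaged ex vivo 15 min after IP D-luciferin (15 mg/mL, 200 μL), organs imaged within 25 min. Values are total flux by region of interest.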

[2] = Particle size and polydispersity index of nanoparticle compositions (Zetasizer Nano ZS); assay type: physicochemical; conditions: Table 1A; for Size (nm): lipid:DSPC:cholesterol:PEG-DMG 50:10:38.5:1.5 mol %
In short: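 In 1×PBS, the compositions were sized on a Zetasizer Nano ZS, which also reported their polydispersity index.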

luciferase (Luc) mRNA [3] = test: Luc expression (total flux) after intramuscular administration; assay type: in vivo, mice; conditions: for AUC (p/s * h) / Lipid/MC3 AUC: Table 3H, intramuscular, Luc; for Total flux, 0.001 mpk Dose / Total flux, 0.01 mpk Dose: 6 hours after intramuscular administration, Luc mRNA and H10 mRNA
Protocol: In order to monitor how effectively various nanoparticle compositions deliver therapeutic and/or prophylactics to targeted cells, different nanoparticle compositions including a particular therapeutic and/or prophylactic (for example, a modified or naturally occurring RNA such as an mRNA) are prepared and administered to rodent populations. Mice are intravenously, intramuscularly, intraarterially, or intratumorally administered a single dose including a nanoparticle composition with a formulation such as those provided in Example 3. In some instances, mice may be made to inhale doses. Dose sizes may range from 0.001 mg/kg to 10 mg/kg, where 10 mg/kg describes a dose including 10 mg of a therapeutic and/or prophylactic in a nanoparticle composition for each 1 kg of body mass of the mouse. A control composition including PBS may also be employed.
Sample formulations including both modified luciferase (Luc) mRNA and H10 mRNA were prepared and administered intramuscularly and the resulting expression and immunogenicity were evaluated simultaneously. Formulations including compounds according to Formula (I), (IA), (IB), (II), (IIa), (IIb), (IIc), (IId), (IIe), (IIf), (IIg), (III), (VI), (VI-a), (VII), (VIII), (VIIa), (VIIIa), (VIIIb), (VIIb-1), (VIIb-2), (VIIb-3), (VIIc), (VIId), (VIIIc), or (VIIId) were prepared and administered at doses of 0.001 and 0.01 mpk (e.g., doses of 0.0005 mpk of a formulation including Luc mRNA and a formulation including H10 mRNA or doses of 0.005 mpk of a formulation including Luc mRNA and a formulation including H10 mRNA).
Sample formulations including modified luciferase (Luc) mRNA prepared and administered intramuscularly and the resulting expression and immunogenicity were evaluated simultaneously. Formulations including compounds according to Formula (I), (IA), (IB), (II), (IIa), (IIb), (IIc), (IId), (IIe), (IIf), (IIg), (III), (VI), (VI-a), (VII), (VIII), (VIIa), (VIIIa), (VIIIb), (VIIb-1), (VIIb-2), (VIIb-3), (VIIc), (VIId), (VIIIc), or (VIIId) were prepared and administered at dose of and 0.01 mpk.

[4] = Encapsulation efficiency of RNA (QUANT-IT RIBOGREEN RNA assay); assay type: physicochemical; conditions: Table 1A
In short: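 RiboGreen fluorescence (ex ~480, em ~520 nm) compared between intact samples and Triton X-100-lysed samples after 15 min at 37 °C in TE buffer, pH 7.5. Percent free RNA is the blank-corrected intact/disrupted ratio.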

luciferase (Luc) mRNA [5] = test: Luc expression, whole body bioluminescence after intravenous administration to mice; assay type: in vivo; conditions: for Total Flux 3 hours / Total Flux 6 hours / Total Flux 24 hours / total flux at 3 hours: mice, i.v., 0.5 mg/kg; for Total Flux 3 hours / Total Flux 6 hours / Total Flux 24 hours: Luc mRNA; for Fold increase in total body Luc Flux relative to MC3 at 6 h: Table 3A, i.v. administration; for total flux at 3 hours: comparison in words
In short: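 Luc mRNA nanoparticle formulations given intravenously to mice (n=6) at 0.5 mg/kg; whole-body bioluminescence imaged at 3, 6 and 24 h. CD-1 mice received IP D-luciferin (200 μL of 15 mg/mL) 15 min before imaging; total flux quantified by region of interest.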

[6] = Apparent (surface) pKa of the LNP formulation (TNS assay); assay type: physicochemical; conditions: for pKa: Table 1A
In short: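 LNP (0.04 mg/mL mRNA) mixed with TNS reagent in 21 buffers spanning about pH 3-12, in triplicate; fluorescence plotted against pH as sigmoidal curve. Apparent pKa taken as […] curve inflection point; validated in 1× PBS and 20 mM Tris w/8% sucrose.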

IL-6, IP-10 = test: Cytokine induction in mice upon intravenous administration; assay type: in vivo; set-up: Cytokine induction IL-6 / Cytokine induction IP-10: unit not given here; conditions: 0.5 mpk, 6 hours; for Cytokine induction IL-6 / Cytokine induction IP-10: intravenous
Excerpt: The introduction of foreign material into a mammalian body induces an innate immune response that promotes cytokine production. Such immune responses to, for example, nanoparticle compositions including therapeutic and/or prophylactics, are undesirable. The induction of certain cytokines is thus measured to evaluate the […] of nanoparticle compositions. The concentrations of various cytokines in mice upon intravenous administration of nanoparticle compositions presented in Table 1A at a dosage of 0.5 mpk was measured at 6 hours. The standard MC3 formulation and a PBS control were also tested. As is evident in Table 7, IL-6 induction was highest for compositions including Compounds 1, 3, 9, 19, and 26, while IP-10 induction was highest for compositions including Compounds 3, 4, 7, 20, and 26. IL-6 induction was lowest for compositions including Compounds 4, 11, 12, and 28. IP-10 induction was lowest for compositions including Compounds 10, 11, 12, 13, 15, 17, and 18.

SMILES | Total Flux Liver (luciferase (Luc) mRNA [1]) | Total Flux Lung (luciferase (Luc) mRNA [1]) | Total Flux Spleen (luciferase (Luc) mRNA [1]) | PDI [2] | Size (nm) [2] [nm] | EE (%) [4] [%] | Total Flux 3 hours (luciferase (Luc) mRNA [5]) | Total Flux 6 hours (luciferase (Luc) mRNA [5]) | Total Flux 24 hours (luciferase (Luc) mRNA [5]) | pKa [6] | Cytokine induction IL-6 (IL-6, IP-10) | Cytokine induction IP-10 (IL-6, IP-10) | Fold increase in total body Luc Flux relative to MC3 at 6 h (luciferase (Luc) mRNA [5]) | Total flux, 0.001 mpk Dose (luciferase (Luc) mRNA [3]) [p/s] | Total flux, 0.01 mpk Dose (luciferase (Luc) mRNA [3]) [p/s] | also measured
CCCCCCCCCOC(=O)CCCCCCCN(CCCCCCCC(=O)OC(CCCCCCCC)CCCCCCCC)C(CO)CO [Compound 156, Heptadecan-9-yl 8-((1,3-dihydroxypropan-2-yl)(8-(nonyloxy)-8-oxooctyl)amino)octanoate] | 6.51E+08 | 1.92E+06 | 1.82E+07 | 0.11 | 68.1 | 98.47 | 5.68E+09 | 1.03E+10 | 6.53E+07 | 6.572 |  |  |  |  |  | AUC (p/s * h) (luciferase (Luc) mRNA [3]): 3.92E+07 p/s * h; Lipid/MC3 AUC (luciferase (Luc) mRNA [3]): 0.07; Lipid/MC3 AUC (luciferase (Luc) mRNA [5]; Table 3D, intravenous): 0.61; AUC (p/s * h) (luciferase (Luc) mRNA [5]; Table 3D, intravenous, Luc): 1.170E+011 p/s * h; App. pKa ([6]; Table 3F): 6.57
CCCCCCCCC(CCCCCCCC)OC(=O)CCCCCCCN(CCO)CCCCCCCC [Compound 4, Heptadecan-9-yl 8-((2-hydroxyethyl)(octyl)amino)octanoate] | 5.26E+09 | 6.22E+07 | 4.09E+08 | 0.21 | 120.5 | 95.10 | 1.37E+11 | 6.01E+10 | 1.13E+09 | 6.33 | 13.1375 | 2253.09 | 1.31 |  |  | IL-6 induction (IL-6, IP-10; i.v., in words): lowest; IP-10 induction (IL-6, IP-10; i.v., in words): highest; Flux in the spleen (luciferase (Luc) mRNA [1]; i.v., in words): highest; total flux at 3 hours (luciferase (Luc) mRNA [5]): highest
CCCCCCCCCOC(=O)CCCCCCCN(CCCCCCCC(=O)OC(CCCCCCCC)CCCCCCCC)CC(O)CC (stereo not drawn) [Compound 13, Heptadecan-9-yl 8-((2-hydroxybutyl)(8-(nonyloxy)-8-oxooctyl)amino) octanoate] | 2.25E+07 | 2.21E+05 | 7.09E+05 | 0.13 | 79.4 | 92.28 | 1.02E+08 | 1.56E+08 | 1.47E+06 | 5.67 | 29.07 | 126.29 |  |  |  | IP-10 induction (IL-6, IP-10; i.v., in words): lowest; Total Flux Femur (luciferase (Luc) mRNA [1]): 1.35E+05
CCCCCCCCCOC(=O)CCCCCCCN(CCCCCCCC(=O)OC(CCCCCCCC)CCCCCCCC)C1CCCCC1O (stereo not drawn) [Compound 22, Heptadecan-9-yl 8-((2-hydroxycyclohexyl)(8-(nonyloxy)-8-oxooctyl)amino)octanoate] | 4.00E+07 | 4.73E+05 | 1.57E+06 | 0.22 | 80.2 | 96.00 | 6.57E+08 | 3.89E+08 | 2.73E+07 | 6.21 | 90.54 | 976.50 |  |  |  | Total Flux Femur (luciferase (Luc) mRNA [1]): 1.16E+05
CCCCCCCCCN(CCCCCCCC(=O)OC(CCCCCCCC)CCCCCCCC)CCCn1ccnc1 [Compound 8, Heptadecan-9-yl 8-((3-(1H-imidazol-1-yl)propyl)(nonyl)amino)octanoate] | 7.87E+08 | 4.06E+06 | 1.51E+08 | 0.15 | 121.0 | 95.8 | 7.43E+09 | 6.71E+09 | 7.84E+08 | 6.64 |  |  |  | 7.81E+05 | 3.32E+06 | 
CCCCCCCCCOC(=O)CCCCCCCN(CCO)CCCCCCCC(=O)OC(CCCCCC)CCCCCCCC (stereo not drawn) [Compound 32, nonyl 8-((2-hydroxyethyl)(8-oxo-8-(pentadecan-7-yloxy)octyl)amino) octanoate] | 8.52E+09 | 1.16E+07 | 1.70E+08 | 0.18 | 105.6 | 94.87 | 8.65E+10 | 6.08E+10 | 1.92E+09 | 6.75 |  |  | 1.39 | 7.37E+05 | 1.03E+07 | total flux at 3 hours (luciferase (Luc) mRNA [5]): highest
CCCCCCCCC(CCCCCCCC)OC(=O)CCCCCCCN(CCO)CCCC(=O)OC(CCCCC)CCCCCCCC (stereo not drawn) [Compound 71, Heptadecan-9-yl 8-((2-hydroxyethyl)(4-oxo-4-(tetradecan-6-yloxy)butyl)amino)octanoate] | 7.93E+08 | 4.86E+06 | 8.04E+06 | 0.24 | 71 | 97.54 | 4.09E+09 | 9.28E+09 | 6.51E+07 | 5.88 |  |  | 0.418 |  |  | AUC (p/s * h) (luciferase (Luc) mRNA [3]): 6.61E+07 p/s * h; Lipid/MC3 AUC (luciferase (Luc) mRNA [3]): 0.11
CCCCCCCCCOC(=O)CCCCCCCN(CCO)CCCCCCCC(=O)OC(CC)CCCCCCCC (stereo not drawn) [Compound 35, nonyl 8-((2-hydroxyethyl)(8-oxo-8-(undecan-3-yloxy)octyl)amino) octanoate] | 1.63E+08 | 2.06E+06 | 1.23E+08 | 0.18 | 151.1 | 90.82 | 9.82E+08 | 1.24E+09 | 5.09E+07 | 6.85 |  |  | 0.028 | 2.45E+06 | 8.12E+06 | 
